Data taken from PMC10344917, “Affinity and cooperativity modulate ternary complex formation to drive targeted protein degradation” (Nature Communications, 2023).

Legend:
[1] = target: T1, SMARCA2^BD (Homo sapiens, UniProt P51531); experiment: SPR binary binding of PROTAC to SMARCA2-functionalized surface; conditions: 1:1 Langmuir binding model, SEM N=3 or SD N=2, read-out: KTP (binary affinity PROTAC / SMARCA2)
T1 construct: SMARCA2^BD 1373–1511 ∆1400–1417; made in house
Method: PROTACs (10 mM stocks in 100% DMSO) were diluted to 400 nM in a running buffer (20 mM Tris pH 7.5, 200 mM NaCl, 0.02% P20). This stock solution was then serially diluted in the running buffer containing final 2% DMSO. Solutions were injected in multi-cycle kinetic format without regeneration (contact time 60 s, flow rate 80 μL/min, dissociation time 120 s) using a stabilization period of 30 s and syringe wash (50% DMSO) between injections onto a high-density VBC-functionalized surface. For SMARCA2 analysis, biotinylated proteins were introduced on a Series S streptavidin (SA) sensor chip at high-density (3000-4000 RU).
(§1) Raw sensorgrams were processed by performing double reference subtraction, solvent correction, and analysis was done using Biacore Insight Evaluation Software. Kinetic analysis was performed by fitting data to a 1:1 Langmuir interaction model and a steady-state affinity model was used to evaluate equilibrium binding affinity.

[2] = target: T2, VBC / SMARCA2^BD ternary complex (Homo sapiens, UniProt P40337+P51531); experiment: SPR ternary complex binding, VBC surface with preformed PROTAC/SMARCA2 bromodomain complex
T2 construct: VHL (54-213), ElonginB (17-112) ElonginC (1-104); SMARCA2^BD 1373–1511 ∆1400–1417; His6 (N, cleaved yes); made in house
T2 sequence (P40337 54-213): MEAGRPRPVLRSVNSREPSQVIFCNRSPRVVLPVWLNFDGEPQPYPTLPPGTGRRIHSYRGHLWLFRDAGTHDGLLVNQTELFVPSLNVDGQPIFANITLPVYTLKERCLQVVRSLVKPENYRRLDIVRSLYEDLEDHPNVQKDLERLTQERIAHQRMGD
T2 sequence (P51531 other isoform, or with tags, fused parts or gaps): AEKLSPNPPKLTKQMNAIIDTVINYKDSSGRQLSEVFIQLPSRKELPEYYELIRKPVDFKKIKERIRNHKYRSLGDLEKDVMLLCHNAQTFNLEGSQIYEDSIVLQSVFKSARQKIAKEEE
T2 sequence (Q15370 1-104, further chain): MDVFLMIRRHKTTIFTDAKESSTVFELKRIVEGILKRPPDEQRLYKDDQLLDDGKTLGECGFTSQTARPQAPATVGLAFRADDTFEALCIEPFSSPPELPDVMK
T2 sequence (Q15369 17-112, further chain): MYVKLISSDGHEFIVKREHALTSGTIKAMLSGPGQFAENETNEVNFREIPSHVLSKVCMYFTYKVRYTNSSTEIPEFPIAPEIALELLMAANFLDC
Method: (§2) SPR experiments were performed on a Biacore 8 K or T200 instrument (Cytiva). […] The running buffer during immobilization was PBS with 0.005% P20. Either high-density (3000-4000 RU) or low-density (300-400 RU) VBC-functionalized surfaces were created, followed by equilibration in the running buffer for 3 h.
PROTACs (10 mM in 100% DMSO) were initially prepared at 200 nM in a running buffer (20 mM Tris pH 8.0, 250 mM NaCl, 1 mM TCEP, 0.01% P20, 0.2 mg/ml BSA) with a concentration of 2% DMSO. This solution was mixed at 1:1 ratio with a solution of 5 μM of the SMARCA2 or BRD4 bromodomain protein in the running buffer. This complex was then serially diluted in the running buffer containing 2.5 μM SMARCA2 or BRD4 and 2% DMSO (5-point five-fold serial dilution). For ternary experiments, solutions were injected sequentially in single-cycle kinetic format without regeneration (contact time 60 s, flow rate 80 μL/min, dissociation time 300 s) using a stabilization period of 60 s and syringe wash (50% DMSO) between injections onto a low-density VBC-functionalized surface.
as §1

[3] = target: T3, SMARCA2 (Homo sapiens, UniProt P51531); experiment: SMARCA2 degradation time course in A375 cells (MSD); type: cell-based; conditions: single concentration at or near maximal activity
T3 construct: endogenous in cells; host or cells: A375
T3 sequence (P51531 whole entry): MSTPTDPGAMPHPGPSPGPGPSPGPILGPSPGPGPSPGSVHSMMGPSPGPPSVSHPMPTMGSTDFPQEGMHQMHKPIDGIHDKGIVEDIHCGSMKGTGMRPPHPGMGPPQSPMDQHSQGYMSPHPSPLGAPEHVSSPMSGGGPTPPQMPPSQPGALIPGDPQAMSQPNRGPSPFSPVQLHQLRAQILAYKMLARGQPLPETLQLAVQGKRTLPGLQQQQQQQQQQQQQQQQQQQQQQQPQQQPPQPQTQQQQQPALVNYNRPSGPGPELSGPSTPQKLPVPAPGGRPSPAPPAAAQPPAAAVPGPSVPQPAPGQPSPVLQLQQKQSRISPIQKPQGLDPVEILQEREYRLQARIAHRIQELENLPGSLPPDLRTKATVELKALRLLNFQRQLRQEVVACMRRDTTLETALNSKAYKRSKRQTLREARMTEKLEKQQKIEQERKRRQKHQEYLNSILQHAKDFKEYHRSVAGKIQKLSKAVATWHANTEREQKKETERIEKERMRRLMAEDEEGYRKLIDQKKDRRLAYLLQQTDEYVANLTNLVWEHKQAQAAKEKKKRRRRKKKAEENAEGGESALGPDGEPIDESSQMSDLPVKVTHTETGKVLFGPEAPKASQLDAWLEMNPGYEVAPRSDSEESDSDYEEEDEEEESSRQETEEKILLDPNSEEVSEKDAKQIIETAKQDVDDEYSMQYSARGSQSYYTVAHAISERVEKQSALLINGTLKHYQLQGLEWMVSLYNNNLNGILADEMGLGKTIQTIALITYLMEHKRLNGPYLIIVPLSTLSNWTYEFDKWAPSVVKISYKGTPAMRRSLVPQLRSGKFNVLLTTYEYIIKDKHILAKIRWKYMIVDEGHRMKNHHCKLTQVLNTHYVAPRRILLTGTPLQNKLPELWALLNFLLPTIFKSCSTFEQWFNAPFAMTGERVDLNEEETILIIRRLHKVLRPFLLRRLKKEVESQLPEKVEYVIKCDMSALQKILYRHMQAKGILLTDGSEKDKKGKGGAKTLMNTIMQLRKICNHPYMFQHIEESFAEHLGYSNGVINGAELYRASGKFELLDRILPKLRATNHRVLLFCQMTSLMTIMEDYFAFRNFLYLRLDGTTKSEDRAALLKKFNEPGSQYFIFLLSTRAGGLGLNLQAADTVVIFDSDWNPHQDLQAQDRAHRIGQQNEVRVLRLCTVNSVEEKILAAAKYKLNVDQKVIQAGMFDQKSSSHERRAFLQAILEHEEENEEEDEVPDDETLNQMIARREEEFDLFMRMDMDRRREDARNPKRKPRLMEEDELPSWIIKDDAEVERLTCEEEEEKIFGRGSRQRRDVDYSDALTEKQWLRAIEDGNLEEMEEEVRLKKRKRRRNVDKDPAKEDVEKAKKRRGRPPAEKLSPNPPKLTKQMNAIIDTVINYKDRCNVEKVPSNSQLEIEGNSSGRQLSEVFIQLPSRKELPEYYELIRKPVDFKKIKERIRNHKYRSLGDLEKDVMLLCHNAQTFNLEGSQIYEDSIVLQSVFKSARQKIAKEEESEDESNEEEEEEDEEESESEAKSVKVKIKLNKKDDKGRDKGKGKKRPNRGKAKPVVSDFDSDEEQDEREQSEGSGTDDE
Source text: This characteristic has been described as cooperativity (α > 1) and likely results from favorable PPIs present in the ternary complex. […] To measure the rate of protein degradation, we treated A375 cells with a single concentration of each PROTAC and measured the decrease in target abundance over time as shown in Figs. 4b and5b.
(§3) MSD electrochemiluminescence signals were subtracted by the average background signal from wells with lysis buffer alone. Normalized MSD values (POC) for individual compound treated wells were acquired by dividing background-subtracted assay signal by signal from vehicle control wells (cells + 0.1% DMSO) and multiplying by 100. This POC data was graphed using a nonlinear regression curve fit xy analysis and a log(inhibitor) vs response —variable slope (four parameter) model for dose response curves (Graphpad Prism 9, San Diego, CA, USA). To calculate area under the curve, all points on the curve were connected and vertical lines were drawn from each point down to y = 0, generating a series of trapezoids. The area of each trapezoid was determined using the equation A = (1/2)(h)(b1 + b2), where h = 1 (distance between points), b1 = POC of the first point and b2 = POC of the second point. The sum of all trapezoids provides an approximate area under the curve (AUC). For half-life (t1/2) determination in time course studies, a one-phase decay model was used for curve fitting and the time at which the curve crossed 50 POC was determined through interpolation (Graphpad Prism 9, San Diego, CA, USA). Additionally initial rate of degradation was determined by multiplying 100 with rate constant (τ = 0.693/t1/2).

[4] = target: T4, VHL/EloB/EloC (VBC) (Homo sapiens, UniProt P40337); experiment: SPR binary binding of PROTAC to VBC-functionalized surface; conditions: SPR; error SEM, N = 3; read-out: KLP (binary binding affinity between E3 ligase VHL and PROTAC)
T4 construct: VHL (54-213), ElonginB (17-112) ElonginC (1-104); made in house
T4 sequence (Q15369 17-112): as the sequence (Q15369 17-112, further chain) above
T4 sequence (Q15370 1-104, further chain): as the sequence (Q15370 1-104, further chain) above
T4 sequence (P40337 54-213): as the sequence (P40337 54-213) above
Method: as §2
PROTACs (10 mM stocks in 100% DMSO) were diluted to 400 nM in a running buffer (20 mM Tris pH 7.5, 200 mM NaCl, 0.02% P20). This stock solution was then serially diluted in the running buffer containing final 2% DMSO. […] For SMARCA2 analysis, biotinylated proteins were introduced on a Series S streptavidin (SA) sensor chip at high-density (3000-4000 RU).
as §1

[5] = target: T3, SMARCA2; experiment: SMARCA2 degradation, MSD assay, dose response; type: cell-based; design: key to AUC (area under the dose-response curve): sum of trapezoids of POC vs dose points, h = 1
Method: A375 cells were treated with SMARCA2 or BRD4 degraders for 2 h (4 h for BRD4) and generated lysates. SMARCA2 or BRD4 protein was measured with a variation of a sandwich ELISA that was assembled from commercially available antibodies as well as reagents and instrumentation procured from Meso Scale Discovery (MSD). Degradation parameter, DC50, is not suitable for PROTACs that induce partial/incomplete DR curves at a fixed time point; maximum drop in target protein level (Dmax) >>0. Conversely, the area under the curve (AUC) can be calculated as a degradation activity parameter for any DR curve, and it encompasses both the degradation potency (i.e., DC50) and efficacy (i.e., Dmax) of PROTACs.
A 1:3 compound dose-response titration was diluted in growth media (1:20), added to appropriate wells of a cell culture plate (1:10) and then assay plates were incubated at 37 °C, 5% CO2.
Plates were washed with 300 µL per well MSD wash buffer (MSD R61TX-1) between each step. Following the last incubation, plates were washed with MSD wash buffer then 150 µL of MSD read buffer (MSD R92TC-2) was added to each well. Plates were immediately read on a MSD plate reader (MSD Sector Imager 6000).
as §3, with “USA).” for “USA). Additionally initial rate of degradation was determined by multiplying 100 with rate constant (τ = 0.693/t1/2).”

T1 sequence (P51531 1373-1493 isoform P51531-2): as the sequence (P51531 other isoform, or with tags, fused parts or gaps) above

Kd [1]: 294 ± 33 nM
α (cooperativity, KLP/KLPT) [2]: 0.32
Kd ([2]; SPR, VHL, PROTAC, error SEM, N = 3, read-out: KLPT (ternary complex binding affinity)): 77 ± 8 nM
Initial Degradation Rate [3]: 0.98 %/min
Kd [4]: 25 ± 4 nM
SMARCA2 degradation ([5]; 2 h MSD assay): ~ 30%
Dmax ([5]; A-375, SMARCA2 degraded, MSD assay, A375 cells, 2 h timepoint): 74%
AUC (area under the dose-response curve) ([5]; SMARCA2 MSD assay, A375 cells, 2 h): 85
DC50 ([5]; SMARCA2 degradation, MSD assay, A375 cells, 2 h timepoint): 372 nM
SMILES: Cc1ncsc1-c1ccc([C@H](C)NC(=O)[C@@H]2C[C@@H](O)CN2C(=O)[C@@H](NC(=O)c2cccc(N3CCN(c4nc(-c5ccccc5O)nnc4N)CC3)n2)C(C)(C)C)cc1 [Compound 9, 6-(4-(6-Amino-3-(2-hydroxyphenyl)-1,2,4-triazin-5-yl)piperazin-1-yl)-N-((S)-1-((2S,4R)-4-hydroxy-2-(((S)-1-(4-(4-methylthiazol-5-yl)phenyl)ethyl)carbamoyl)pyrrolidin-1-yl)-3,3-dimethyl-1-oxobutan-2-yl)picolinamide]
